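Abbreviation: GI50, concentration required for 50% inhibition of growth. Definition used: TGI = concentration required for complete inhibition of growth.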
Columns and labels:
Test in all cases: NCI anticancer screen, dose series, 384-well format; in the data active = GI50 below about 0.43 µM; inactive = the rest
COLO 205 colon = test system: COLO 205 colon
HCC-2998 colon = test system: HCC-2998 colon
U251 glioblastoma = test system: U251 glioblastoma
SF-295 CNS = test system: SF-295 CNS
HL-60(TB) leukemia = test system: HL-60(TB) leukemia
HCT-15 colon = test system: HCT-15 colon
SF-539 CNS = test system: SF-539 CNS
CAKI-1 renal = test system: CAKI-1 renal
K-562 leukemia = test system: K-562 leukemia
KM12 colon = test system: KM12 colon
UO-31 renal = test system: UO-31 renal
HT29 colon = test system: HT29 colon
NCI-H322M lung = test system: NCI-H322M lung
EKVX NSCLC = test system: EKVX NSCLC
MDA-MB-231 breast = test system: MDA-MB-231 breast
SK-OV-3 ovarian = test system: SK-OV-3 ovarian
786-0 renal = test system: 786-0 renal
SK-MEL-28 melanoma = test system: SK-MEL-28 melanoma
NCI-H522 lung = test system: NCI-H522 lung
UACC-62 melanoma = test system: UACC-62 melanoma
IGROV1 ovarian = test system: IGROV1 ovarian
CCRF-CEM leukemia = test system: CCRF-CEM leukemia
SN12C renal = test system: SN12C renal
PC-3 prostate = test system: PC-3 prostate
SNB-75 CNS = test system: SNB-75 CNS
NCI-H23 lung = test system: NCI-H23 lung
A549 NSCLC = test system: A549 NSCLC
OVCAR-8 ovarian = test system: OVCAR-8 ovarian
M14 melanoma = test system: M14 melanoma
DU-145 prostate = test system: DU-145 prostate
TK-10 renal = test system: TK-10 renal
NCI/ADR-RES ovarian = test system: NCI/ADR-RES ovarian
NCI-H226 lung = test system: NCI-H226 lung
HOP-62 NSCLC = test system: HOP-62 NSCLC
ACHN renal = test system: ACHN renal
MCF7 breast = test system: MCF7 breast
T-47D breast = test system: T-47D breast
MDA-MB-468 breast = test system: MDA-MB-468 breast
HCT-116 colon = test system: HCT-116 colon
LOX IMVI melanoma = test system: LOX IMVI melanoma
MALME-3M melanoma = test system: MALME-3M melanoma
RPMI-8226 leukemia = test system: RPMI-8226 leukemia
HS 578T breast = test system: HS 578T breast
OVCAR-3 ovarian = test system: OVCAR-3 ovarian
A498 renal = test system: A498 renal
MDA-MB-435 melanoma = test system: MDA-MB-435 melanoma
SK-MEL-5 melanoma = test system: SK-MEL-5 melanoma
SNB-19 CNS = test system: SNB-19 CNS
SF-268 CNS = test system: SF-268 CNS
NCI-H460 NSCLC = test system: NCI-H460 NSCLC
MOLT-4 leukemia = test system: MOLT-4 leukemia
OVCAR-4 ovarian = test system: OVCAR-4 ovarian
SW-620 colon = test system: SW-620 colon
HOP-92 NSCLC = test system: HOP-92 NSCLC
UACC-257 melanoma = test system: UACC-257 melanoma
RXF 393 renal = test system: RXF 393 renal
SR leukemia = test system: SR leukemia
BT-549 breast = test system: BT-549 breast

CN(C)CCCOc1ccc(-c2ccc3ncc4c(c3c2)n(C2CCOCC2)c(=O)n4C)cn1
12 µM: TGI (PC-3 prostate)
13.5 µM: TGI (COLO 205 colon)
11 µM: TGI (HL-60(TB) leukemia)
30 µM: TGI (BT-549 breast)
6.42 µM: TGI (IGROV1 ovarian)
2.39 µM: TGI (RPMI-8226 leukemia)
96.2 µM: TGI (NCI-H460 NSCLC)
14.5 µM: TGI (LOX IMVI melanoma)
71.9 µM: TGI (SK-OV-3 ovarian)
49.5 µM: TGI (TK-10 renal)
27.8 µM: TGI (HT29 colon)
inactive: GI50 (COLO 205 colon) 2.17 µM | GI50 (HCC-2998 colon) 3.12 µM | GI50 (U251 glioblastoma) > 100 µM | GI50 (SF-295 CNS) 2.95 µM | GI50 (HL-60(TB) leukemia) 2.95 µM | GI50 (HCT-15 colon) 5.01 µM | GI50 (SF-539 CNS) 3.85 µM | GI50 (CAKI-1 renal) 1.45 µM | GI50 (K-562 leukemia) 7.55 µM | GI50 (KM12 colon) 2.67 µM | GI50 (UO-31 renal) 4.78 µM | GI50 (HT29 colon) 4.36 µM | GI50 (NCI-H322M lung) 3.21 µM | GI50 (EKVX NSCLC) 2.39 µM | GI50 (MDA-MB-231 breast) 2.08 µM | GI50 (SK-OV-3 ovarian) 2.45 µM | GI50 ([…]-0 renal) 5.99 µM | GI50 (SK-MEL-28 melanoma) 5.73 µM | GI50 (NCI-H522 lung) 3.48 µM | GI50 (UACC-62 melanoma) 4.33 µM | GI50 (IGROV1 ovarian) 1.17 µM | GI50 (CCRF-CEM leukemia) 1.95 µM | GI50 (SN12C renal) 2.32 µM | GI50 (PC-3 prostate) 1.73 µM | GI50 (SNB-75 CNS) 2.76 µM | GI50 (NCI-H23 lung) 8.22 µM | GI50 (A549 NSCLC) 3.91 µM | GI50 (OVCAR-8 ovarian) 5.22 µM | GI50 (M14 melanoma) 3.32 µM | GI50 (DU-145 prostate) 4.92 µM | GI50 (TK-10 renal) 3 µM | GI50 (NCI/ADR-RES ovarian) > 100 µM | GI50 (NCI-H226 lung) 3.73 µM | GI50 (HOP-62 NSCLC) 3.81 µM | GI50 (ACHN renal) 5.21 µM | GI50 (MCF7 breast) 1.91 µM | GI50 (T-47D breast) 1.22 µM | GI50 (MDA-MB-468 breast) 2.47 µM | GI50 (HCT-116 colon) 6.44 µM | GI50 (LOX IMVI melanoma) 2.45 µM | GI50 (MALME-3M melanoma) 1.24 µM | GI50 (RPMI-8226 leukemia) 0.738 µM | GI50 (HS 578T breast) 1.47 µM | GI50 (OVCAR-3 ovarian) 1.69 µM | GI50 (A498 renal) 2.54 µM | GI50 (MDA-MB-435 melanoma) 6.28 µM | GI50 (SK-MEL-5 melanoma) 2.23 µM | GI50 (SNB-19 CNS) 22.9 µM | GI50 (SF-268 CNS) 4.23 µM | GI50 (NCI-H460 NSCLC) 1.5 µM | GI50 (MOLT-4 leukemia) 1.39 µM | GI50 (OVCAR-4 ovarian) 7.94 µM | GI50 (SW-620 colon) 4.91 µM | GI50 (HOP-92 NSCLC) 3.45 µM | GI50 (UACC-257 melanoma) > 100 µM | GI50 (RXF 393 renal) 5.05 µM | GI50 (BT-549 breast) 3.56 µM
26 µM: TGI (KM12 colon)
active: GI50 (SR leukemia) 0.172 µM
6.38 µM: TGI (CAKI-1 renal)
4.86 µM: TGI (OVCAR-3 ovarian)
55.7 µM: TGI (HCT-116 colon)
23.3 µM: TGI (UACC-62 melanoma)
> 100 µM: TGI (HCC-2998 colon) | TGI (U251 glioblastoma) | TGI (SF-295 CNS) | TGI (HCT-15 colon) | TGI (SF-539 CNS) | TGI (UO-31 renal) | TGI (EKVX NSCLC) | TGI (MDA-MB-231 breast) | TGI (786-0 renal) | TGI (SK-MEL-28 melanoma) | TGI (NCI-H522 lung) | TGI (SNB-75 CNS) | TGI (NCI-H23 lung) | TGI (A549 NSCLC) | TGI (OVCAR-8 ovarian) | TGI (M14 melanoma) | TGI (DU-145 prostate) | TGI (NCI/ADR-RES ovarian) | TGI (NCI-H226 lung) | TGI (HOP-62 NSCLC) | TGI (ACHN renal) | TGI (MCF7 breast) | TGI (A498 renal) | TGI (MDA-MB-435 melanoma) | TGI (SK-MEL-5 melanoma) | TGI (SNB-19 CNS) | TGI (SF-268 CNS) | TGI (OVCAR-4 ovarian) | TGI (SW-620 colon) | TGI (UACC-257 melanoma) | TGI (RXF 393 renal)
19.9 µM: TGI (MDA-MB-468 breast)
0.445 µM: TGI (SR leukemia)
4.14 µM: TGI (HS 578T breast)
10 µM: TGI (CCRF-CEM leukemia)
11.7 µM: TGI (T-47D breast)
30.6 µM: TGI (K-562 leukemia)
4.71 µM: TGI (MOLT-4 leukemia)
36.7 µM: TGI (NCI-H322M lung)
6.1 µM: TGI (MALME-3M melanoma)
32.8 µM: TGI (SN12C renal)
20.2 µM: TGI (HOP-92 NSCLC)

Source: PubChem BioAssay (NCI)
